Assay results from ChEMBL document CHEMBL5518188, “Discovery of 4-amino-1,6-dihydro-7H-pyrrolo[2,3-d]pyridazin-7-one derivatives as potential receptor-interacting serine/threonine-protein kinase 1 (RIPK1) inhibitors” (Eur J Med Chem, 2024).
Active and inactive are the calls of the source. No cut-off for these calls is given here.

Key:
[1] = test system: L929; assay: Anti-necroptosis activity against TSZ-induced mouse L929 cells; format: functional, cell-based
[2] = Metabolic stability in cryopreserved human liver microsome assessed as half life; format: ADME; details: cryopreserved liver microsomes
[3] = test system: U-937; assay: Anti-necroptosis activity against TSZ-induced human U-937 cells; format: functional, cell-based
[4] = target: T1, Receptor-interacting serine/threonine-protein kinase 1 (Homo sapiens, UniProt Q13546); assay: Inhibition of RIPK1 (unknown origin) in presence of ATP by kinaseProfiler assay
T1 sequence (Q13546 whole entry): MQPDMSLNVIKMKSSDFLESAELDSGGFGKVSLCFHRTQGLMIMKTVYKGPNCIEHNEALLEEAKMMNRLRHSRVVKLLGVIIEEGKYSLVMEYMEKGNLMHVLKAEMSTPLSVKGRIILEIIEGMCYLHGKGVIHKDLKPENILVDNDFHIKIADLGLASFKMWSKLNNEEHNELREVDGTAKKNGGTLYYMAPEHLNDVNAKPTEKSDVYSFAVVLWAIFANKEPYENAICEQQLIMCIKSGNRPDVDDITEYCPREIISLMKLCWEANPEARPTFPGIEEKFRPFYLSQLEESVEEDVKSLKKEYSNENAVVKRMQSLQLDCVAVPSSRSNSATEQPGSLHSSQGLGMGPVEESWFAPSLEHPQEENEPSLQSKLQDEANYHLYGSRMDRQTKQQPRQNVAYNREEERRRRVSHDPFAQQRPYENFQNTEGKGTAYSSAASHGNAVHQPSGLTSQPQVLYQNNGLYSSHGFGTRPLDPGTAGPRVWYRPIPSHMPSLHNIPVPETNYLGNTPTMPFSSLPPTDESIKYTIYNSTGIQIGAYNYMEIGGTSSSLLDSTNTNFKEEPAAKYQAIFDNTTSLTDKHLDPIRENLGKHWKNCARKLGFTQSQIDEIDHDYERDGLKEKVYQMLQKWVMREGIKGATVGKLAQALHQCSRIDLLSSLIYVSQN

[5] = test system: HT-29; assay: Anti-necroptosis activity against TSZ-induced human HT-29 cells; format: functional, cell-based
[6] = Oral bioavailability in BALB/c mouse at 10 mg/kg; format: ADME, organism-based; details: in vivo; for bioavailability: BALB/c
[7] = Tmax in BALB/c mouse at 10 mg/kg, po; format: ADME, organism-based; details: in vivo
[8] = Half life in BALB/c mouse at 5 mg/kg, iv; format: ADME, organism-based; details: in vivo
[9] = Half life in BALB/c mouse at 10 mg/kg, po; format: ADME, organism-based; details: in vivo
[10] = Cmax in BALB/c mouse at 10 mg/kg, po; format: ADME, organism-based; details: in vivo
[11] = Tmax in BALB/c mouse at 5 mg/kg, iv; format: ADME, organism-based; details: in vivo
[12] = Cmax in BALB/c mouse at 5 mg/kg, iv; format: ADME, organism-based; details: in vivo
[13] = AUC (0 to t) in BALB/c mouse at 5 mg/kg, iv; format: ADME, organism-based; details: in vivo
[14] = AUC (0 to t) in BALB/c mouse at 10 mg/kg, po; format: ADME, organism-based; details: in vivo, po, 10 mg/kg
[15] = Apparent volume of distribution in BALB/c mouse at 10 mg/kg, po; format: ADME, organism-based; details: in vivo
[16] = Apparent volume of distribution in BALB/c mouse at 10 mg/kg, iv; format: ADME, organism-based; details: in vivo, read-out: Vz
[17] = Clearance in BALB/c mouse at 10 mg/kg, iv; format: ADME, organism-based; details: in vivo
[18] = AUC (0 to t) in BALB/c mouse at 10 mg/kg, iv; format: ADME, organism-based; details: in vivo, iv, 10 mg/kg
[19] = Clearance in BALB/c mouse at 10 mg/kg, po; format: ADME, organism-based; details: in vivo, po, 10 mg/kg
[20] = Cmax in BALB/c mouse at 10 mg/kg, iv; format: ADME, organism-based; details: in vivo
[21] = Half life in BALB/c mouse at 10 mg/kg, iv; format: ADME, organism-based; details: in vivo
[22] = Tmax in BALB/c mouse at 10 mg/kg, iv; format: ADME, organism-based; details: in vivo
[23] = test system: Mus musculus; assay: In vivo anti-necrotptic activity in SIRS mouse model assessed as protection from body temperature loss at 10 mg/kg, po measured upto 6 hrs; format: functional, organism-based

Structure (SMILES)	EC50 [1] [nM]	half-life [2] [min]	EC50 [3] [nM]	IC50 [4] [nM]	EC50 [5] [nM]	other results
CCn1nc(-c2ccc3c(c2)CCN3C(=O)Cc2cccc(OC(F)(F)F)c2)c2c(N)n[nH]c(=O)c21	9.79	> 120	4.45	42.7	16.1	bioavailability [6]: 4.36%
CC1(Cn2nc(-c3ccc4c(c3)CCN4C(=O)Cc3cccc(OC(F)(F)F)c3)c3c(N)n[nH]c(=O)c32)CC1	13.2	26.4	10.2	98.7	37.5	–
Nc1n[nH]c(=O)c2c1c(-c1ccc3c(c1)CCN3C(=O)Cc1cccc(OC(F)(F)F)c1)nn2CC(F)F	9.84	31.9	14.6	84.5	16	–
Nc1n[nH]c(=O)c2c1c(-c1ccc3c(c1)CCN3C(=O)Cc1cccc(OC(F)(F)F)c1)nn2CC1CC1	0.48	48.8	3.89	110	2.61	Tmax [7]: 60 min; half-life [8]: 702 min; half-life ([9]; BALB/c): 155 min; Cmax [10]: 1090 ng/mL; Tmax [11]: 8.4 min; Cmax [12]: 3290 ng/mL; AUC(0-t) [13]: 6930 ng·h/mL; AUCt [14]: 6121.97 ng·h/mL; Vz [15]: 6007.49 L/kg; bioavailability [6]: 44.1%
CC(C)n1nc(-c2ccc3c(c2)CCN3C(=O)Cc2cccc(OC(F)(F)F)c2)c2c(N)n[nH]c(=O)c21	1.47	26.8	17.3	66.1	7.73	–
CCC1(Cn2nc(-c3ccc4c(c3)CCN4C(=O)Cc3cccc(OC(F)(F)F)c3)c3c(N)n[nH]c(=O)c32)COC1	6.67	16.5	4.64	81.6	18.4	–
CCCCn1nc(-c2ccc3c(c2)CCN3C(=O)Cc2cccc(OC(F)(F)F)c2)c2c(N)n[nH]c(=O)c21	1.2	18.3	15.5	105	8.23	–
Nc1n[nH]c(=O)c2c1c(-c1ccc3c(c1)CCN3C(=O)Cc1cccc(C(F)(F)F)c1)cn2CC1CC1	1.17	119	1.88	125	6.01	Tmax [7]: 8.4 min; Vd [16]: 91 L/kg; t1/2 ([9]; po, 10 mg/kg): 1259 min; clearance [17]: 48.7 mL/min/kg; AUCt [18]: 2048.56 ng·h/mL; Cmax [10]: 45.5 ng/mL; CL [19]: 48.7 mL/min/kg; Cmax [20]: 45.5 ng/mL; half-life [21]: 1260 min; Tmax [22]: 120 min; AUCt [14]: 2048.56 ng·h/mL; Vz [15]: 2.8 L/kg; F ([6]; po, 10 mg/kg): 22.49%
Nc1n[nH]c(=O)c2c1c(-c1ccc3c(c1)CCN3C(=O)Cc1cccc(OC(F)(F)F)c1)nn2CC1COC1	5.89	19.9	5.09	73.7	15.1	–
Nc1n[nH]c(=O)c2c1c(-c1ccc3c(c1)CCN3C(=O)Cc1cccc(OC(F)(F)F)c1)nn2CC1CCCC1	3.95	49.9	12.7	95.9	15.7	–
Nc1n[nH]c(=O)c2c1c(-c1ccc3c(c1)CCN3C(=O)Cc1cccc(OC(F)(F)F)c1)cn2CC1CC1	1.62	> 120	3.68	109	5.78	–
CC1(Cn2cc(-c3ccc4c(c3)CCN4C(=O)Cc3cccc(C(F)(F)F)c3)c3c(N)n[nH]c(=O)c32)COC1	1.58	85.6	22	48.7	33	–
Nc1n[nH]c(=O)c2c1c(-c1ccc3c(c1)CCN3C(=O)Cc1cccc(OC(F)(F)F)c1)nn2CCC1CNC1	366	100	> 1000	> 1000	> 1000	–
Nc1n[nH]c(=O)c2c1c(-c1ccc3c(c1)CCN3C(=O)Cc1cccc(OC(F)(F)F)c1)nn2Cc1ccccc1	14.3	28.2	117	149	108	–
CN1C(=O)[C@@H](NC(=O)c2n[nH]c(Cc3ccccc3)n2)COc2ccccc21 [GSK2982772]	1260	–	1.27	–	2.78	Activity [23]: Active
CCn1cc(-c2ccc3c(c2)CCN3C(=O)Cc2cccc(OC(F)(F)F)c2)c2c(N)n[nH]c(=O)c21	5.99	66.6	1.74	60.5	5.45	–
COCCn1nc(-c2ccc3c(c2)CCN3C(=O)Cc2cccc(OC(F)(F)F)c2)c2c(N)n[nH]c(=O)c21	1.08	17.8	8.29	80.5	4.45	–
